The results in this text go back to US7176008B2, “Process for producing activated thrombin-activatable fibrinolysis inhibitor” (Merck & Co., Inc., priority 2002, dated 2007).

The target of assay [1] is T1, CPB (Homo sapiens, UniProt P15086).
T1 sequence (P15086 111-417): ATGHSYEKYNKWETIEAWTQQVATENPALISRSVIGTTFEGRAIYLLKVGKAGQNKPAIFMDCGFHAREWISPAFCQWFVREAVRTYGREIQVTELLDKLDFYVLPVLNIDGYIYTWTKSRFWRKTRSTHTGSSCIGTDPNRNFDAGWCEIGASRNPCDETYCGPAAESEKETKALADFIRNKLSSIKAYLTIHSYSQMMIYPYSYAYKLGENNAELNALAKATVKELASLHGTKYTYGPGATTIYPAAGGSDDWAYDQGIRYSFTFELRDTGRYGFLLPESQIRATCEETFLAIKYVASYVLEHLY
The note with it: CPB versus TAFIa.
Experimental: (§1) A typical assay (75 μL) contained each studied carboxypeptidase and selected inhibitors (in 5 μL DMSO) in HBSP buffer in 96-well round bottom microtiter plates (Costar 3365 plates). Enzyme and compound were preincubated for 15–30 minutes at room temperature. […] The final substrate concentration was 15 to 50 nM. The amount of carboxypeptidase activity was titrated to result in 40,000–50,000 electrochemiluminescence counts (typically 0.02–0.1 nM, 0.01 nM, 5 nM, and 0.15–0.65 nM. for TAFIa, CPB, CPN and CPM, respectively). […] Ruthenium-labeled G2-10 (25 μL of 0.063 μg/mL) and streptavidin magnetic beads (25 μL of 0.2 mg/mL, Dynabeads M-280) were added to the quenched solution and shaken at 300 rpm for >1 hr. G2-10 antibody and beads were prepared in a BSA diluent containing 150 mM phosphate, pH 7.8, 150 mM NaCl, 3% (w/v) BSA (protease free fraction V) and 0.05% NaN3. The volume was brought to 250 μL with HBSP and read on an Igen 96-well electrochemiluminescence plate reader (M8 Analyzer) at 620 nm. Subtraction of background activity in solutions containing only substrate was performed to determine the final activity. […] One unit was defined as one nM product generated per min.
(§2) All measurements were performed in at least duplicates and the inhibition constants (Ki) were determined by the equation below wherein Vo and Vi are activity in the absence and presence of inhibitors, respectively. Vo/Vi=1+[I]/K1
(§3) Several commercial inhibitors were tested with the electrochemiluminescence assay.
(§4) Hydrolysis of substrate was measured in HBSP (pH 7.4) for TAFIa, CPB, CPM, and CPM. Activities of CPE and CPZ were measures in acetate buffer (pH 5.5) and Tris buffer (pH 7.4), respectively.

The target of assay [2] is T2, CPM (Homo sapiens, UniProt P14384).
T2 sequence (P14384 18-423 limits assumed): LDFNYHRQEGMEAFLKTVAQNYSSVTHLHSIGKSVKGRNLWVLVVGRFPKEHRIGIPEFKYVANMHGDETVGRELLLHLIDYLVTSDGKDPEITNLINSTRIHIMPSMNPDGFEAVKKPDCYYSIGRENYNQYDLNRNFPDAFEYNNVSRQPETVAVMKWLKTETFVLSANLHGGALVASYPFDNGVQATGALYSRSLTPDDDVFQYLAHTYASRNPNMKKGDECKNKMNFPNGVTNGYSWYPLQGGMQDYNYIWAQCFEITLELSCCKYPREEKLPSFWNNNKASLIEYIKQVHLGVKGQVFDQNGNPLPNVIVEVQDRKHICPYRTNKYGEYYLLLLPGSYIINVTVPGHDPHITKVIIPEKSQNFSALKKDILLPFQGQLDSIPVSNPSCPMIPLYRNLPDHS
Experimental: as §1, §2, §3, §4

Assay [3] has as its target CPE (Homo sapiens, UniProt P16870). Briefly: biochemical.
Experimental: (§5) Inhibition studies of CPE were performed in an acetate buffer containing 125 mM sodium acetate, pH 5.5, 1.25 mM CoCl2 at 37° C. […] CPE (final concentration 0.15 nM) was pre-incubated with inhibitors for 30 min at room temperature. The electrochemiluminescence substrate (final concentration 50 nM) was added and incubated for 6 hr at 37° C., then quenched with one-third volume of 1 M Tris, pH 8.0.
as §2
Assay [4] deals with T3, CPZ (Homo sapiens, UniProt Q66K79).
T3 sequence (Q66K79 19-652): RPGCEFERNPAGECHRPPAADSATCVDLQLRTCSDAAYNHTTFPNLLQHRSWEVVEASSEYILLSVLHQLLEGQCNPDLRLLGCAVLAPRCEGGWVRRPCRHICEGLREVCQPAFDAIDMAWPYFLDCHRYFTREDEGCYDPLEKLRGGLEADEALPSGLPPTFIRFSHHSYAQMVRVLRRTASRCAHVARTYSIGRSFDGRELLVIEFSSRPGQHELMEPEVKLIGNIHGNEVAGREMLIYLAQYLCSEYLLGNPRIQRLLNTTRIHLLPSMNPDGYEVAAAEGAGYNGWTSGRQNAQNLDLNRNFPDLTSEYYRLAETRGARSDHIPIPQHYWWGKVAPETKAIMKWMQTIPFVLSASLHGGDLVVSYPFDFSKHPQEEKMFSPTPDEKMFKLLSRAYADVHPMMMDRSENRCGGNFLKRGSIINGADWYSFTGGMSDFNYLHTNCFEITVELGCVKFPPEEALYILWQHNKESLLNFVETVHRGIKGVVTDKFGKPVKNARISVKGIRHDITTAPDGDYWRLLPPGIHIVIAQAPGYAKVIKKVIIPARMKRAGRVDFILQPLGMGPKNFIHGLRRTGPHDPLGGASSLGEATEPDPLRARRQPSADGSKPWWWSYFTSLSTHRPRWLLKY
Experimental: Inhibition studies of CPE were performed in an acetate buffer containing 125 mM sodium acetate, pH 5.5, 1.25 mM CoCl2 at 37° C. […] CPE (final concentration 0.15 nM) was pre-incubated with inhibitors for 30 min at room temperature. The electrochemiluminescence substrate (final concentration 50 nM) was added and incubated for 6 hr at 37° C., then quenched with one-third volume of 1 M Tris, pH 8.0. The activity of CPZ was determined in 100 mM Tris, pH 7.4 at 37° C.
CPZ (final concentration 2 nM) was pre-incubated with inhibitors for 30 min at room temperature before substrate was added (final concentration 50 nM). […] The concentration of product was determined as described above.
as §2
Activities of CPE and CPZ were measures in acetate buffer (pH 5.5) and Tris buffer (pH 7.4), respectively.

Assay [5] concerns the target most carboxypeptidases. The note with it: read-out: Ki for most carboxypeptidases; all except CPE.
Experimental: (§6) A typical assay (75 μL) contained each studied carboxypeptidase and selected inhibitors (in 5 μL DMSO) in HBSP buffer in 96-well round bottom microtiter plates (Costar 3365 plates). Enzyme and compound were preincubated for 15–30 minutes at room temperature. […] The final substrate concentration was 15 to 50 nM. The amount of carboxypeptidase activity was titrated to result in 40,000–50,000 electrochemiluminescence counts (typically 0.02–0.1 nM, 0.01 nM, 5 nM, and 0.15–0.65 nM. for TAFIa, CPB, CPN and CPM, respectively). […] Ruthenium-labeled G2-10 (25 μL of 0.063 μg/mL) and streptavidin magnetic beads (25 μL of 0.2 mg/mL, Dynabeads M-280) were added to the quenched solution and shaken at 300 rpm for >1 hr. G2-10 antibody and beads were prepared in a BSA diluent containing 150 mM phosphate, pH 7.8, 150 mM NaCl, 3% (w/v) BSA (protease free fraction V) and 0.05% NaN3. The volume was brought to 250 μL with HBSP and read on an Igen 96-well electrochemiluminescence plate reader (M8 Analyzer) at 620 nm. […]
(§7) All measurements were performed in at least duplicates and the inhibition constants (Ki) were determined by the equation below wherein Vo and Vi are activity in the absence and presence of inhibitors, respectively. […]
(§8) Hydrolysis of substrate was measured in HBSP (pH 7.4) for TAFIa, CPB, CPM, and CPM. […]
The subject of assay [6] is CPE.
Experimental: as §5, §2
Assay [7] addresses T4, CPN (Homo sapiens, UniProt P15169).
T4 sequence (P15169 21-458): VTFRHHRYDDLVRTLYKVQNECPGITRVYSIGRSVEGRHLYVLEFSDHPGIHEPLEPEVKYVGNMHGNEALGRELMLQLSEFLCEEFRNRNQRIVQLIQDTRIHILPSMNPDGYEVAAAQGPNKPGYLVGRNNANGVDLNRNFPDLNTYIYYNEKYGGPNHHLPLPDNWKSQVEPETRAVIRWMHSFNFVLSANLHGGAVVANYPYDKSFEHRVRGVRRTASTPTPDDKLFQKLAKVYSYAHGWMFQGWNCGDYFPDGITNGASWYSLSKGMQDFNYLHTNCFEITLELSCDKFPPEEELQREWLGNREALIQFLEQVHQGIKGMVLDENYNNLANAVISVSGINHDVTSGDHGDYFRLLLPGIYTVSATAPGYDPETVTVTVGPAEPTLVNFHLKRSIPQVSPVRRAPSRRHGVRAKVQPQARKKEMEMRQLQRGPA
T4 sequence (P22792 22-545 partner): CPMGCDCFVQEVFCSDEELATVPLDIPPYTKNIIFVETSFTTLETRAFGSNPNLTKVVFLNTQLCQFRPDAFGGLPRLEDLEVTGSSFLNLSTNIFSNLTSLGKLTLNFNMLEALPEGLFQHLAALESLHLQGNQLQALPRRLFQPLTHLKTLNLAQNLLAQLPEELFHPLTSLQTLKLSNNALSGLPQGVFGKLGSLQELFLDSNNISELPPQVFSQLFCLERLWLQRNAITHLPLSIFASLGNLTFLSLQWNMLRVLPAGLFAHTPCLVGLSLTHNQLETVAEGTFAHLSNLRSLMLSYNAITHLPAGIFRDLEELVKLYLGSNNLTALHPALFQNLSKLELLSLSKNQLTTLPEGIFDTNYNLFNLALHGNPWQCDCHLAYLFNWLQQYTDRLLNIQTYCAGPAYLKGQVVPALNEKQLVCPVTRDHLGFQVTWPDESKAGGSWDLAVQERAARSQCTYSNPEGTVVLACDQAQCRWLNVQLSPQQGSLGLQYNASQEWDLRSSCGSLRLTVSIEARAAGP
Experimental: as §6, §7, §8

Residues, ends and D or L forms follow the SMILES beside them. *: point of attachment. Biotin = O=C1N[C@H]2[C@H](CS[C@H]2CCCCC(=O)*)N1; Ahx = NCCCCCC(=O)O

CPE (Homo sapiens, UniProt P16870), sequence (P16870 43-450 limits assumed): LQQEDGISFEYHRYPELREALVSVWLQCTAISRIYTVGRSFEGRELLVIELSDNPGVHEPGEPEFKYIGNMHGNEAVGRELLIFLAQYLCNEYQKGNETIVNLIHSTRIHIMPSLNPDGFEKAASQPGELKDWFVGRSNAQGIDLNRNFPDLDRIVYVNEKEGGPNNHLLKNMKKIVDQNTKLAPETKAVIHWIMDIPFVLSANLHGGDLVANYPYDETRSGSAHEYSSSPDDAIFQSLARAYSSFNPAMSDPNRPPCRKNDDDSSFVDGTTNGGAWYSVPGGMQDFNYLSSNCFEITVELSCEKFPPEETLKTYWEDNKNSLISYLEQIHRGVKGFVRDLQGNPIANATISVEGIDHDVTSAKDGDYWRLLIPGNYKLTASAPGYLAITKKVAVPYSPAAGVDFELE

Consider `N=C(N)NCCSCC(CS)C(=O)O` (racemic) [Plummer's Inhibitor, DL-2-mercaptomethyl-3-guinidinoethylthiopropanoic acid], for which the “inhibitory potency toward CPB relative to TAFIa” value in assay [1] is reported as “two to three orders of magnitude greater”. The Ki (as a rule, the dissociation constant of the complex between target and ligand, obtained from inhibition or displacement) in assay [2] stood at 0.003 µM.
For the molecule `CSCC[C@H](NC(=O)[C@H](CC(C)C)NC(=O)CNC(=O)CCCCCNC(=O)CCCCCNC(=O)CCCC[C@@H]1SC[C@@H]2NC(=O)N[C@@H]21)C(=O)N[C@H](C(=O)NCC(=O)NCC(=O)N[C@H](C(=O)N[C@H](C(=O)N[C@@H](CCCNC(=N)N)C(=O)O)C(C)C)C(C)C)C(C)C` ({Biotin-Ahx-Ahx}-GLMVGGVVR-OH), the Km – broadly, the concentration of substrate that gives half-maximal velocity – in assay [2] (read-out: Km for CPM, 37° C.) is more than 50 µM.
As to `N=C(N)NCCSC(CC(=O)O)C(=O)O` (centres unmarked) [GEMSA, 2-guanidinoethylmercaptosuccinic acid], the “inhibitory potency toward CPB relative to TAFIa” value in assay [1] is “two to three orders of magnitude greater”. For the same molecule, the Ki in assay [3] was 0.016 µM; in assay [4], 7 µM. Further, the “fold less potent for CPZ than for CPE” value in assay [4] (CPZ versus CPE) is reported as 440 fold.
As to `NCCCCCC(=O)O` [ε-aminocaproic acid], in assay [5], the Ki is not below 1000 µM. In addition, in assay [3], the IC50 (in general, the concentration that inhibits the measured activity by half) was 8 µM and the Ki worked out at 8.2 µM. The “fold more potent on CPE than inhibition of CPB” value in assay [6] (CPE versus CPB) was more than 100 fold. Also, the “potency on CPE relative to the other enzymes” value in assay [6] (CPE versus other carboxypeptidases) is “two orders of magnitude more potent”.
For the molecule protamine, in assay [7] (CPN versus the other carboxypeptidases), the “specificity for CPN activity” value was more than 100 fold. Also, the Ki in assay [7] (read-out: Ki for CPN, room temperature, HBSP pH 7.4) was 0.97 µM.
